# Patent US20240252508A1, “Novel glucose uptake inhibitors for use in the treatment of cancer” (NOVELYEAST BV, priority 2021, published 2024)
# How the values were obtained:
# [1] = system: A549 lung adenocarcinoma cells; assay: Steady-state glucose consumption and lactate production in A549 cells; assay type: cell-based, human; details: 25 μM, 1 mM glucose, 8 h
# Description: The influence of WBC compounds on the steady-state glucose consumption rate was studied in the A549 adenocarcinoma and KMS-12-PE multiple myeloma cell lines. As such, different parameters needed to be optimized depending on whether cells were adherent or in suspension. As such, A549 cells were incubated at 125,000 cells/well in a 24-well plate in 300 μL RPMI medium for 8 h. For the KMS-12-PE cell line, 100,000 cells/well were incubated in 100 μL RPMI medium in a 96-well plate for 8 h. Medium was collected, spun down and HPLC-analyzed for measuring glucose and lactate levels. Metabolite levels were corrected for cell number, which always varied little over the span of 8 h. For every condition, at least 4 technical repeats were included.
# tps1Δ cells = assay: Glu6P and Fru1,6bisP levels after glucose addition to tps1Δ cells; assay type: cell-based, S. cerevisiae
# Description: For measuring metabolite levels, cells were typically grown in Complete Synthetic medium. […] However, when comparing the effect of Warbicins on metabolite profiles of wild type and tps1Δ strains (FIG. 2f-k), cells were grown on 2% galactose. When grown to exponential phase, cells were harvested by centrifugation and washed twice with ice-cold 25 mM 2-(N-Morpholino)ethanesulfonic acid (MES) buffer, pH 6. Cells were suspended in Complete Synthetic medium without sugar at a concentration of 75 mg (wet weight)/mL followed by a temperature equilibration at 30° C. in a shaking water bath for 30 min. Depending on the experiment, a final concentration of 2.5 mM, 7.5 mM or 10 mM glucose was added to the cell suspension. Compounds were added 10 min prior to glucose addition. […]
# Through endpoint measurement of the absorbance of NADH or NADPH at 340 nm, metabolite concentrations were calculated by applying Lambert's Law. Different metabolites were measured through the use of coupled enzymatic reactions. […] Depending on the measured metabolite, different co-factors and auxiliary enzymes were added. For measuring glucose-6-phosphate, 0.8 mg/ml NADP^+ was added to the assay buffer after which the baseline absorbance was measured. […] After stabilization of the OD340 spectra, ATP concentrations were measured by additionally adding 10 mM MgCl2 and 0.5 mM glucose to the assay buffer. […]
# yeast Hxt7 carrier = target: T1, yeast Hxt7 carrier (Saccharomyces cerevisiae, UniProt P39004); assay: Glucose uptake by Hxt7 expressed in hxt^0 gal2Δ (RE700A) yeast; assay type: cell-based, S. cerevisiae
# T1 construct: HA (C); expressed in transfected cells; host or cells: S. cerevisiae RE700A (hxt0 gal2Δ) in A5; EBY.VW4000 (hxt0 erg4Δ) in A7; plasmid 'pHXT7'
# T1 sequence (P39004 whole entry): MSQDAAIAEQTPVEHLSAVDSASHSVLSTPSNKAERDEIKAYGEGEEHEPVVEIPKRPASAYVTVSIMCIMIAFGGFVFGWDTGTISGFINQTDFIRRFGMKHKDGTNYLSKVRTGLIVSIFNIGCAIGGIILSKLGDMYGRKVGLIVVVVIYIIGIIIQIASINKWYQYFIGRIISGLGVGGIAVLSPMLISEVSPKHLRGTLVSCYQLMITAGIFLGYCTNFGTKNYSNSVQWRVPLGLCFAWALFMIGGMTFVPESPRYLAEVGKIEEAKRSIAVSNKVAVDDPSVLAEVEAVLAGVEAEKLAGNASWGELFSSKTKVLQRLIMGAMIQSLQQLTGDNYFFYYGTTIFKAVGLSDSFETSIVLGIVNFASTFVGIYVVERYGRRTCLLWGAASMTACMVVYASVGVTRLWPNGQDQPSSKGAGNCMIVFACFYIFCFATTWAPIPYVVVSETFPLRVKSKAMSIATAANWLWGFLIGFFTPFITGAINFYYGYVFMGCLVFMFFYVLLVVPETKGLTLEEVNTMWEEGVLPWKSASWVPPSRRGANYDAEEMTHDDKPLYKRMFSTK
# Description: To assess whether WBC-A could inhibit glucose transport activity of the GLUT carriers, we expressed human GLUT1^V69M and GLUT4^V85M in a hxt^0 gal2Δ (RE700A) and hxt^0 erg4Δ (EBY.VW4000) strain, respectively. These strains are both deficient in glucose uptake due to absence of all active glucose transporters. For functional GLUT expression in yeast, specific mutations had to be introduced in both sequences, whereas for GLUT4, an additional ERG4 gene deletion was required^64,65,66.
# Zero-trans uptake of radioactively labeled [U-^14C]glucose, [U-^14C]fructose or [U-^14C]galactose by S. cerevisiae cells was determined in accordance with previous studies^44,66. Cells were grown on different carbon sources depending on the experiment. For measuring glucose uptake activity in the tps1Δ and tps1Δ hxtA strains (FIG. 1b,c), cells were grown on YP medium containing 3% glycerol (measurement of 10s). Typically, for compound characterization and kinetic studies in wild type and tps1Δ strains, cells were (pre)grown on Complete Synthetic medium supplemented with 2% galactose (measurement of 10s). […] The loaded filter was transferred to a scintillation vial containing 3 mL liquid scintillation cocktail (Ultima-Flo M, Perkin Elmer) and counted using the Hidex 300 SL. […]
structure (smiles),measurement,setting,value
Cc1nc(Sc2nnc3n2CCCCC3)c2c(-c3cccs3)csc2n1 [WBC-A],Glucose consumption and lactate production in A549 cells,[1],did not cause inhibition
same,"Glu6P and Fru1,6bisP hyperaccumulation after addition of 2.5 mM glucose",tps1Δ cells,"concentration-dependent gradual drop in Glu6P and a more precipitous drop in Fru1,6bisP"
same,IC50,yeast Hxt7 carrier,51 µM
same,Inhibition of glucose uptake by Hxt7 at 25 μM,"yeast Hxt7 carrier; 25 μM, 2.5 mM glucose, hxt^0 gal2Δ strain",inhibited
